Test results taken from the kinase profiling compilation of Christmann-Franck et al. (2016).
Values joined by “and” are separate entries in the source; they are usually repeats but may differ in a detail not shown here. Equal entries are not always repeated.

Columns and labels:
Test in all cases: radiometric filter-binding kinase assay, Kinase HotSpot
Details in all cases: compound 0.5 µM; ATP 10 µM
[1] = target: MAPK13 (human) (UniProt O15264)
[2] = target: RPS6KB1 (human) (UniProt P23443)
[3] = target: ROCK1 (human) (UniProt Q13464)
[4] = target: SGK2 (human) (UniProt Q9HBY8)
Sequence of SGK2 (human) (Q9HBY8 whole entry, looked up): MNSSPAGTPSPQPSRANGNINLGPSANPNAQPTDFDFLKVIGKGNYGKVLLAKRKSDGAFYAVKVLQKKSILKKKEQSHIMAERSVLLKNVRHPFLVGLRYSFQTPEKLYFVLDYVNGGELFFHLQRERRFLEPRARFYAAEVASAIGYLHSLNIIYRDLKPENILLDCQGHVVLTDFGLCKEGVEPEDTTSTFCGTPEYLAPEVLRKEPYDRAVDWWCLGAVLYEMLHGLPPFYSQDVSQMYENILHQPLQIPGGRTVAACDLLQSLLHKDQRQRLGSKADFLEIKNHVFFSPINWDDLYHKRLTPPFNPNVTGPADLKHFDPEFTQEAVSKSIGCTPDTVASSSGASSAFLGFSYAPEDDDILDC

[5] = target: CLK3 (human) (UniProt P49761)
[6] = target: MELK (human) (UniProt Q14680)
[7] = target: PASK (human) (UniProt Q96RG2)
[8] = target: ALK (human) (UniProt Q9UM73)
[9] = target: MST1R (human) (UniProt Q04912)
[10] = target: RPS6KA1 KD1 KD2 (human) (UniProt Q15418)
[11] = target: NEK6 (human) (UniProt Q9HC98)
[12] = target: EPHA4 (human) (UniProt P54764)
[13] = target: ACVR1 (human) (UniProt Q04771)
[14] = target: KDR (human) (UniProt P35968)
[15] = target: PRKD2 (human) (UniProt Q9BZL6)
[16] = target: ULK1 (human) (UniProt O75385)
[17] = target: TEC (human) (UniProt P42680)
[18] = target: PRKCZ (human) (UniProt Q05513)
[19] = target: RPS6KB2 (human) (UniProt Q9UBS0)
[20] = target: CHUK (human) (UniProt O15111)
[21] = target: CDK6 CCND1 (human) (UniProt Q00534+P24385)
[22] = target: IRAK1 (human) (UniProt P51617)
[23] = target: NEK7 (human) (UniProt Q8TDX7)
[24] = target: MAPK12 (human) (UniProt P53778)
[25] = target: MARK1 (human) (UniProt Q9P0L2)
Sequence of MARK1 (human) (Q9P0L2 whole entry, looked up): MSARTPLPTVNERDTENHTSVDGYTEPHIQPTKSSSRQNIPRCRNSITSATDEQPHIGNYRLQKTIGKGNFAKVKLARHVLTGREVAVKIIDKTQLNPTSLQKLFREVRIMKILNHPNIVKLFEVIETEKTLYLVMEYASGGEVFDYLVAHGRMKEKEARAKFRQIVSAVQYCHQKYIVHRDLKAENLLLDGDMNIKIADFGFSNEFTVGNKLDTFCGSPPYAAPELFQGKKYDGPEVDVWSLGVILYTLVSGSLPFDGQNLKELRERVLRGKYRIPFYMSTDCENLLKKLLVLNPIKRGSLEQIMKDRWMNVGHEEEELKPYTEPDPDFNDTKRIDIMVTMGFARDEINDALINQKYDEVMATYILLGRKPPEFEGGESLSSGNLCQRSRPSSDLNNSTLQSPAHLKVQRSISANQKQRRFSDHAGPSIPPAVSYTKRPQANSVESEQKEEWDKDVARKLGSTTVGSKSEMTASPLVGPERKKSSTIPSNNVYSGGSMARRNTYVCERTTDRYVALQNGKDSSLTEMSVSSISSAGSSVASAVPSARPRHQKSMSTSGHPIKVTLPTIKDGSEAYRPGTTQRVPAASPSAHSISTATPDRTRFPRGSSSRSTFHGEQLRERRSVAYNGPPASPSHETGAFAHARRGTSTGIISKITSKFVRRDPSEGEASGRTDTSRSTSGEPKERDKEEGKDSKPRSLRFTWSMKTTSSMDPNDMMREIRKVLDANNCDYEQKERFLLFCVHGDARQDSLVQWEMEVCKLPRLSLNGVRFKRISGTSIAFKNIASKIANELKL

[26] = target: PRKG1 (human) (UniProt Q13976)
[27] = target: MAPK1 (human) (UniProt P28482)
Sequence of MAPK1 (human) (P28482 whole entry, looked up): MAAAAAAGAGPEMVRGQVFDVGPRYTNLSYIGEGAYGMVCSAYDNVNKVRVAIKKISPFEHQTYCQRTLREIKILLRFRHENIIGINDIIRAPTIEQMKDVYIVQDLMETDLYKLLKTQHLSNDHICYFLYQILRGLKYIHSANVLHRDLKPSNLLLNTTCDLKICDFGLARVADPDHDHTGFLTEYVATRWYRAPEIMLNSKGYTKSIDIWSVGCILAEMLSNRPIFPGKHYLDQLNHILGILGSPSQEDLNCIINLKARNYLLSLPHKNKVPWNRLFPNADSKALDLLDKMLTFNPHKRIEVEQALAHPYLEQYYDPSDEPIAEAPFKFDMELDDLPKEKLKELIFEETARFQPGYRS

[28] = target: NUAK2 (human) (UniProt Q9H093)
[29] = target: AURKC (human) (UniProt Q9UQB9)
Sequence of AURKC (human) (Q9UQB9 whole entry, looked up): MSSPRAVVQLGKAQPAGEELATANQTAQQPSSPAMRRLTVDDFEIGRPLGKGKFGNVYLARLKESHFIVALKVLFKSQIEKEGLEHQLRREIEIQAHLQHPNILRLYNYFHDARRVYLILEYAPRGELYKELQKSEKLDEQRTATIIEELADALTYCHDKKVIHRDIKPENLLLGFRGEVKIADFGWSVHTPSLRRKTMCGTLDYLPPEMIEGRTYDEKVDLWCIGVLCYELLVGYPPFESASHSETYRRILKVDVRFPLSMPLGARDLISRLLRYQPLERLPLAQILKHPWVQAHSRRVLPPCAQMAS

[30] = target: SRPK1 (human) (UniProt Q96SB4)
[31] = target: MST4 (human) (UniProt Q9P289)
[32] = target: KIT (human) (UniProt P10721)
[33] = target: MYLK (human) (UniProt Q15746)
Sequence of MYLK (human) (Q15746 whole entry, looked up): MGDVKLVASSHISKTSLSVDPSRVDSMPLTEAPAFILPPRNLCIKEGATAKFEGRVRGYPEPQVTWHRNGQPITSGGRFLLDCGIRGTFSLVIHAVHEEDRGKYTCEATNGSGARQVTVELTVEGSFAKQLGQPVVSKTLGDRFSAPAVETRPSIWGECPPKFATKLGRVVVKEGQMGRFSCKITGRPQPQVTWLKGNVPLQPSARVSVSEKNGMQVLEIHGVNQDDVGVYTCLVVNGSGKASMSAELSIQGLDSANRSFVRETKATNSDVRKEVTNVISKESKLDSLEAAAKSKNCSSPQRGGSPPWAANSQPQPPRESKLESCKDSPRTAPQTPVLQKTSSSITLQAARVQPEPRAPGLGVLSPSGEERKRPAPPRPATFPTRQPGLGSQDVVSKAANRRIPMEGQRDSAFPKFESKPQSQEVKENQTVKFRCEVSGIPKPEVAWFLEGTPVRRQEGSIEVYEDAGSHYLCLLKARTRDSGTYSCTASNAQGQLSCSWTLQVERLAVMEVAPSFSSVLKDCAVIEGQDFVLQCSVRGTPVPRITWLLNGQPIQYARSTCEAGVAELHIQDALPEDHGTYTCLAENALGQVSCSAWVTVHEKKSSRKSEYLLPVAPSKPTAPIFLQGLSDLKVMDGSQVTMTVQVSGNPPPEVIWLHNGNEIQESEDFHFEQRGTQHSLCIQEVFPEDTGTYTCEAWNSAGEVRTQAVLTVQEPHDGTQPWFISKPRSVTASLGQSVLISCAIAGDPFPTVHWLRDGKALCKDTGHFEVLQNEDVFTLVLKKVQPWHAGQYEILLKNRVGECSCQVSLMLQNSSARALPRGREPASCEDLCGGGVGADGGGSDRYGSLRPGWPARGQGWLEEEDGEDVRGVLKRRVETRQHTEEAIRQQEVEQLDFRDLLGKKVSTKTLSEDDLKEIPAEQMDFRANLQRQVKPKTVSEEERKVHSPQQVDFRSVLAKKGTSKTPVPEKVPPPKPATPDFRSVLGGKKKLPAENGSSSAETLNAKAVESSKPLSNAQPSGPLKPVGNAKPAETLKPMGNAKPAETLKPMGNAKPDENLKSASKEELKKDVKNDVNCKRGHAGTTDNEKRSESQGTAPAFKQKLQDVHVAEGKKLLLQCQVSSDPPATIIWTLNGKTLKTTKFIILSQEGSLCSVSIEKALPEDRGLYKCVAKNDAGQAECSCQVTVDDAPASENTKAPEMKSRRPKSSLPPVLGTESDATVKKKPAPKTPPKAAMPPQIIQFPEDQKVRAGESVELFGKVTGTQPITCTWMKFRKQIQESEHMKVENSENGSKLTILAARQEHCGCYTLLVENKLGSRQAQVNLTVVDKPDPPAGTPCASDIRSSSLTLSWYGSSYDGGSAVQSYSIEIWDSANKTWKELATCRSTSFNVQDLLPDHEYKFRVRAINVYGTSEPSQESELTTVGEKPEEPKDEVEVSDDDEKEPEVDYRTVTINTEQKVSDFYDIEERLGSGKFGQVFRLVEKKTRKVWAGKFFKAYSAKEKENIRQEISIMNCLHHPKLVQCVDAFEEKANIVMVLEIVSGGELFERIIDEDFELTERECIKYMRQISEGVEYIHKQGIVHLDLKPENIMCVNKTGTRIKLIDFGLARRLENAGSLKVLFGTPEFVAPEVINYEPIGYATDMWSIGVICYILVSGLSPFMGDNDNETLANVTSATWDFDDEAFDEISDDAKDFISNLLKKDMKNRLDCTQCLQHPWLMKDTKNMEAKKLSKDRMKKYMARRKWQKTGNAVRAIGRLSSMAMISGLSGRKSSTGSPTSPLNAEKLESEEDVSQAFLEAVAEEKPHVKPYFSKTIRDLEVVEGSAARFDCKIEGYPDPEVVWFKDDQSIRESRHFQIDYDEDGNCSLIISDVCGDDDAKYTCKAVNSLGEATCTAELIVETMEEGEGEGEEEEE

[34] = target: NEK4 (human) (UniProt P51957)
[35] = target: PRKCA (human) (UniProt P17252)
[36] = target: PIM3 (human) (UniProt Q86V86)
[37] = target: MAPK10 (human) (UniProt P53779)
[38] = target: ERBB2 (human) (UniProt P04626)
[39] = target: PRKCH (human) (UniProt P24723)
[40] = target: CHEK2 (human) (UniProt O96017)
[41] = target: FGFR4 (human) (UniProt P22455)
[42] = target: JAK3 JH1 JH2 (human) (UniProt P52333)

Sequence of RPS6KB1 (human) (P23443 whole entry, looked up): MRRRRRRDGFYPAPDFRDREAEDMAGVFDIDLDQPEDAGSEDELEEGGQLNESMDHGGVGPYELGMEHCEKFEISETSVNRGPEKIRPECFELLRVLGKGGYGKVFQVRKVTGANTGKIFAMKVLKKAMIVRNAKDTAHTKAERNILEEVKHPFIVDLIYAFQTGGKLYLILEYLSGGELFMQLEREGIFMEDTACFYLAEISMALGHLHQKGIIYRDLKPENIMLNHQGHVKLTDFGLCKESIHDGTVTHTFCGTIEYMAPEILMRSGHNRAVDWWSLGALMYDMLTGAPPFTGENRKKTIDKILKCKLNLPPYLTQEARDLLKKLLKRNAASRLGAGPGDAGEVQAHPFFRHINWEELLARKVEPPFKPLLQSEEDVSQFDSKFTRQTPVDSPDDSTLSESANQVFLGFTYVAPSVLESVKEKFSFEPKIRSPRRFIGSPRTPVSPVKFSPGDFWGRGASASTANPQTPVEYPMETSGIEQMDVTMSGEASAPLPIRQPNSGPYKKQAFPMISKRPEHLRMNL

For N#C/C(=C\c1ccc(O)c(O)c1)C(=O)NCc1ccccc1, which residual activity [1] is on record?
The residual activity was 101%.

What about the residual activity [2] of the same compound?
Its residual activity is 92.8%.

What about the residual activity [3] of the same compound?
The residual activity was 99.7%.

What about the residual activity [4] of the same compound?
Its residual activity is 101%.

And the residual activity [5]?
Its residual activity is 125%.

And the residual activity [6]?
The residual activity was 100%.

What about the residual activity [7] of the same compound?
Its residual activity is 95.1%.

And the residual activity [8]?
Its residual activity is 105%.

What about the residual activity [9] of the same compound?
Its residual activity is 102%.

And the residual activity [10]?
Its residual activity is 102%.

What about the residual activity [11] of the same compound?
Its residual activity is 104%.

And the residual activity [12]?
The residual activity was 99.5%.

And the residual activity [13]?
Its residual activity is 91.3%.

What about the residual activity [14] of the same compound?
The residual activity was 95.8%.

And the residual activity [15]?
Its residual activity is 101%.

And the residual activity [16]?
The residual activity was 92.9%.

What about the residual activity [17] of the same compound?
Its residual activity is 123%.

And the residual activity [18]?
Its residual activity is 104%.

And the residual activity [19]?
Its residual activity is 94.7%.

And the residual activity [20]?
Its residual activity is 103%.

And the residual activity [21]?
Its residual activity is 95.6%.

What about the residual activity [22] of the same compound?
The residual activity was 154%.

And the residual activity [23]?
Its residual activity is 111%.

What about the residual activity [24] of the same compound?
Its residual activity is 94.2%.

What about the residual activity [25] of the same compound?
Its residual activity is 93.8%.

And the residual activity [26]?
Its residual activity is 89.2% and 92.6%.

And the residual activity [27]?
The residual activity was 92.2%.

And the residual activity [28]?
Its residual activity is 131%.

What about the residual activity [29] of the same compound?
Its residual activity is 95.5%.

And the residual activity [30]?
The residual activity was 104%.

What about the residual activity [31] of the same compound?
Its residual activity is 103%.

And the residual activity [32]?
Its residual activity is 93.9%.

What about the residual activity [33] of the same compound?
Its residual activity is 94.5%.

What about the residual activity [34] of the same compound?
Its residual activity is 98.6%.

What about the residual activity [35] of the same compound?
Its residual activity is 99.1%.

What about the residual activity [36] of the same compound?
The residual activity was 95.8%.

What about the residual activity [37] of the same compound?
The residual activity was 98%.

And the residual activity [38]?
The residual activity was 97.6%.

And the residual activity [39]?
The residual activity was 95.5%.

What about the residual activity [40] of the same compound?
Its residual activity is 97.5%.

What about the residual activity [41] of the same compound?
Its residual activity is 84.2%.

Which results are given for COc1ccc2c(c1)/C(=C/c1cnc[nH]1)C(O)=N2?
residual activity [1]: 102%; residual activity [2]: 98.2%; residual activity [3]: 96%; residual activity [4]: 71.4%; residual activity [5]: 103%; residual activity [6]: 36.5%; residual activity [7]: 93.4%; residual activity [8]: 112%; residual activity [10]: 69.6%; residual activity [11]: 98.2%; residual activity [12]: 98.2%; residual activity [13]: 105%; residual activity [14]: 78.7%; residual activity [15]: 60.2%; residual activity [16]: 53.4%; residual activity [17]: 91.6%; residual activity [18]: 107%; residual activity [19]: 98.7%; residual activity [20]: 110%; residual activity [42]: 49.6%; residual activity [21]: 13.3%; residual activity [22]: 101%; residual activity [24]: 95.5%; residual activity [25]: 50.4%; residual activity [26]: 91.7% and 99%; residual activity [27]: 93.1%; residual activity [28]: 116%; residual activity [29]: 67.8%; residual activity [30]: 98%; residual activity [31]: 88.5%; residual activity [32]: 84.1%; residual activity [33]: 80.9%; residual activity [34]: 96%; residual activity [35]: 91.3%; residual activity [36]: 99%; residual activity [37]: 105%; residual activity [38]: 101%; residual activity [39]: 111%; residual activity [40]: 77.9%; residual activity [41]: 85.8%

N#Cc1c[nH]c2c[nH]/c(=N\Cc3cccnc3)cc2/c1=N\c1ccc(F)c(Cl)c1 was tested. Which residual activity [1] did it give?
The residual activity was 101%.

And the residual activity [2]?
Its residual activity is 89.4%.

What about the residual activity [3] of the same compound?
The residual activity was 99.8%.

What about the residual activity [4] of the same compound?
Its residual activity is 98.5%.

What about the residual activity [5] of the same compound?
The residual activity was 96.7%.

And the residual activity [6]?
Its residual activity is 88%.

And the residual activity [7]?
Its residual activity is 124%.

And the residual activity [8]?
The residual activity was 107%.

What about the residual activity [9] of the same compound?
The residual activity was 89.6%.

What about the residual activity [10] of the same compound?
Its residual activity is 94.6%.

What about the residual activity [11] of the same compound?
Its residual activity is 104%.

What about the residual activity [12] of the same compound?
The residual activity was 92.8%.

What about the residual activity [13] of the same compound?
The residual activity was 95.6%.

And the residual activity [14]?
The residual activity was 96.3%.

What about the residual activity [15] of the same compound?
The residual activity was 99.7%.

And the residual activity [16]?
The residual activity was 76.1%.

And the residual activity [17]?
Its residual activity is 118%.

And the residual activity [18]?
The residual activity was 93.9%.

What about the residual activity [19] of the same compound?
The residual activity was 99.5%.

What about the residual activity [20] of the same compound?
The residual activity was 96.3%.

What about the residual activity [42] of the same compound?
Its residual activity is 86.2%.

And the residual activity [21]?
The residual activity was 92.2%.

And the residual activity [22]?
Its residual activity is 114%.

And the residual activity [23]?
The residual activity was 102%.

And the residual activity [25]?
The residual activity was 91.6%.

What about the residual activity [26] of the same compound?
The residual activity was 87.2% and 90.8%.

And the residual activity [27]?
The residual activity was 105%.

What about the residual activity [28] of the same compound?
Its residual activity is 135%.

What about the residual activity [29] of the same compound?
Its residual activity is 91.8%.

What about the residual activity [30] of the same compound?
Its residual activity is 102%.

And the residual activity [31]?
Its residual activity is 95%.

What about the residual activity [32] of the same compound?
Its residual activity is 92.9%.

And the residual activity [33]?
The residual activity was 105%.

What about the residual activity [34] of the same compound?
Its residual activity is 71.7%.

What about the residual activity [35] of the same compound?
The residual activity was 89.7%.

What about the residual activity [36] of the same compound?
Its residual activity is 85%.

And the residual activity [37]?
Its residual activity is 95%.

And the residual activity [38]?
Its residual activity is 91.7%.

And the residual activity [39]?
Its residual activity is 117%.

And the residual activity [40]?
The residual activity was 90.5%.

What about the residual activity [41] of the same compound?
The residual activity was 92.6%.
